We go through one molecule from patent US10624875B2, “Methods and compositions for treating schizophrenia” (The Johns Hopkins University, priority 2012, dated 2020).

This experiment concerns aMCI subjects. The experiment can be described thus: explicit 3-alternative forced choice task (lure images), cognitive performance. The experiment is classed as in vivo, human. Particulars: 125 mg twice a day for two weeks, versus placebo. An excerpt:
There are various tests known in the art for assessing cognitive function in humans, for example and without limitation, the clinical global impression of change scale (CIBIC-plus scale); the Mini Mental State Exam (MMSE); the Neuropsychiatric Inventory (NPI); the Clinical Dementia Rating Scale (CDR); the Cambridge Neuropsychological Test Automated Battery (CANTAB); the Sandoz Clinical Assessment-Geriatric (SCAG), the Buschke Selective Reminding Test (Buschke and Fuld, 1974); the Verbal Paired Associates subtest; the Logical Memory subtest; the Visual Reproduction subtest of the Wechsler Memory Scale-Revised (WMS-R) (Wechsler, 1997); the Benton Visual Retention Test, or MATRICS consensus neuropsychological test battery which includes tests of working memory, speed of processing, attention, verbal learning, visual learning, reasoning and problem solving and social cognition. […]
As described above, the drug treatment period is the two weeks preceding Visit 1 or 2 (with the two week period preceding the other Visit being the placebo phase). For the subjects receiving the drug treatment, half a scored 250 mg tablet of levetiracetam is used to achieve a dose of […], which is approximately 3.6 mg/kg/day (assuming an average adult human weight of 70 kg). […]

For `CC[C@@H](C(N)=O)N1CCCC1=O` [levetiracetam, (2S)-2-(2-oxopyrrolidin-1-yl) butanamide], the “performance in the explicit 3-alternative forced choice task” value is on record as “improves significantly”.
